Assay results published in patent US10246411B2, “(Z)-3,4,5-trimethoxystyrylbenzenesulfonamides as potential anticancer agents” (COUNCIL OF SCIENTIFIC & INDUSTRIAL RESEARCH, priority 2014, dated 2019).
Where two headings read alike, the source gives them in different places.

What was measured:
U251 = assay: In vitro cytotoxicity (NCI protocol, SRB), U251; settings: Homo sapiens, U-251, 48 h
HCC-2998 = assay: In vitro cytotoxicity (NCI protocol, SRB), HCC-2998; settings: Homo sapiens, HCC 2998, 48 h
MDA-MB-231/ATCC = assay: In vitro cytotoxicity (NCI protocol, SRB), MDA-MB-231/ATCC; settings: Homo sapiens, MDA-MB-231, 48 h
KM12 = assay: In vitro cytotoxicity (NCI protocol, SRB), KM12; settings: Homo sapiens, KM12, 48 h
M14 = assay: In vitro cytotoxicity (NCI protocol, SRB), M14; settings: Homo sapiens, M14, 48 h
T-47D = assay: In vitro cytotoxicity (NCI protocol, SRB), T-47D; settings: Homo sapiens, T47D, 48 h
LOX IMVI = assay: In vitro cytotoxicity (NCI protocol, SRB), LOX IMVI; settings: Homo sapiens, 48 h
SK-MEL-2 = assay: In vitro cytotoxicity (NCI protocol, SRB), SK-MEL-2; settings: Homo sapiens, SK-MEL-2, 48 h
human tumor cell lines = assay: In vitro cytotoxicity (NCI protocol, SRB), whole panel / mean graph midpoints; type: cell-based; settings: for GI50: Homo sapiens
Source text: The mean graph midpoint values of Log10 TGI and Log10 LC50 as well as Log10 GI50 for compounds 17a, 17c, 13a, 13c and 12a is listed in Table-2. […] The mean graph midpoints of Log10 TGI and Log10 LC50 have shown similar pattern to the log10 GI50 mean graph mid points.

K-562 = assay: In vitro cytotoxicity (NCI protocol, SRB), K-562; settings: Homo sapiens, K562, 48 h
SNB -75 = assay: In vitro cytotoxicity (NCI protocol, SRB), SNB -75; settings: Homo sapiens, SNB-75, 48 h
NCI-H460 = assay: In vitro cytotoxicity (NCI protocol, SRB), NCI-H460; settings: Homo sapiens, NCI-H460, 48 h
NCI/ADR-RES = assay: In vitro cytotoxicity (NCI protocol, SRB), NCI/ADR-RES; settings: Homo sapiens, 48 h
UACC-257 = assay: In vitro cytotoxicity (NCI protocol, SRB), UACC-257; settings: Homo sapiens, UACC-257, 48 h
MDA-MB-435 = assay: In vitro cytotoxicity (NCI protocol, SRB), MDA-MB-435 (breast panel line); settings: Homo sapiens, MDA-MB-435, 48 h
NCI-H23 = assay: In vitro cytotoxicity (NCI protocol, SRB), NCI-H23; settings: Homo sapiens, NCI-H23, 48 h
COLO-205 = assay: In vitro cytotoxicity (NCI protocol, SRB), COLO-205; settings: Homo sapiens, COLO 205, 48 h
ACHN = assay: In vitro cytotoxicity (NCI protocol, SRB), ACHN; settings: Homo sapiens, 48 h
NCI-H522 = assay: In vitro cytotoxicity (NCI protocol, SRB), NCI-H522; settings: Homo sapiens, NCI-H522, 48 h
IGROV1 = assay: In vitro cytotoxicity (NCI protocol, SRB), IGROV1; settings: Homo sapiens, IGROV-1, 48 h
BT-549 = assay: In vitro cytotoxicity (NCI protocol, SRB), BT-549; settings: Homo sapiens, BT-549, 48 h
CAKI-1 = assay: In vitro cytotoxicity (NCI protocol, SRB), CAKI-1; settings: Homo sapiens, CAKI-1, 48 h
MCF7 = assay: In vitro cytotoxicity (NCI protocol, SRB), MCF7; settings: Homo sapiens, MCF7, 48 h
NCI-H226 = assay: In vitro cytotoxicity (NCI protocol, SRB), NCI-H226; settings: Homo sapiens, NCI-H226, 48 h
CCRF-CEM = assay: In vitro cytotoxicity (NCI protocol, SRB), CCRF-CEM; settings: Homo sapiens, 48 h
NCIH322M = assay: In vitro cytotoxicity (NCI protocol, SRB), NCIH322M; settings: Homo sapiens, NCI-H322M, 48 h
UO-31 = assay: In vitro cytotoxicity (NCI protocol, SRB), UO-31; settings: Homo sapiens, UO-31, 48 h
SN12C = assay: In vitro cytotoxicity (NCI protocol, SRB), SN12C; settings: Homo sapiens, 48 h
[1] = mean over human tumor cell lines

SMILES: COc1ccc(S(=O)(=O)Nc2cc(/C=C\c3cc(OC)c(OC)c(OC)c3)cc(OC)c2OC)cc1 [13a, (Z)—N-(2,3-dimethoxy-5-(3,4,5-trimethoxystyryl)phenyl)-4-methoxybenzenesulfonamide]
- GI50 (U251): 35.7 nM
- GI50 (HCC-2998): 39.1 nM
- GI50 (MDA-MB-231/ATCC): 47.9 nM
- GI50 (KM12): 39.7 nM
- GI50 (M14): 30.1 nM
- GI50 (T-47D): 5210 nM
- GI50 (LOX IMVI): 50 nM
- GI50 (SK-MEL-2): 37.4 nM
- GI50 (human tumor cell lines; against all the cancer cell lines, read-out: GI50 values range): 18 to 50 nM
- GI50 (human tumor cell lines; against almost all tumor cell lines, read-out: GI50 values): < 50 nM
- GI50 (human tumor cell lines; against fifty eight cell lines in nine cancer cell panels, read-out: GI50 values): 20 to 50 nM
- cytotoxicity (human tumor cell lines; against almost 50 above cancer cell lines): significant cytotoxicity
- Log10GI50 mean graph mid point (MG_MID) (human tumor cell lines; [1]): −7.2
- Log10LC50 mean graph mid point (MG_MID) (human tumor cell lines; [1]): −4.07
- Log10TGI mean graph mid point (MG_MID) (human tumor cell lines; [1]): −4.55
- GI50 (K-562): 27.2 nM
- GI50 (SNB -75): 26.5 nM
- GI50 (NCI-H460): 36.7 nM
- GI50 (NCI/ADR-RES): 35.3 nM
- GI50 (UACC-257): 4100 nM
- GI50 (MDA-MB-435): 42 nM
- GI50 (NCI-H23): 59.3 nM
- GI50 (COLO-205): 21.4 nM
- GI50 (ACHN): 57 nM
- GI50 (NCI-H522): 19.7 nM
- GI50 (IGROV1): 57.7 nM
- GI50 (BT-549): 42.5 nM
- GI50 (CAKI-1): 53.1 nM
- GI50 (MCF7): 36 nM
- GI50 (NCI-H226): 27300 nM
- GI50 (CCRF-CEM): 32.9 nM
- GI50 (NCIH322M): 55.3 nM
- GI50 (UO-31): 63.6 nM
- GI50 (SN12C): 69.8 nM
